Assay results as given in PMC10928712, “High Target Homology Does Not Guarantee Inhibition: Aminothiazoles Emerge as Inhibitors of Plasmodium falciparum” (ACS Infectious Diseases, 2024).
≈ marks a conversion by molar mass, not a printed value. Where two headings read alike, the source gives them in different places.

Key:
P. falciparum 3D7 [1] = test: Method I growth-inhibition assay (SYBR Green I, 96 h); type: cell-based; details: Plasmodium falciparum
From the text: Nonlinear regression as implemented in GraphPad Prism 7.00 (log(inhibitor) vs response – variable slope (four parameters)) was used to fit the measured data to interpolate the IC50 value from the curve. No specific model was applied. Data was preprocessed by normalizing according to the following formula: […]
(§1) eq 1: Fluorescence data normalization [drawing 2] where y is the fluorescence signal in each well, yminimum is the background fluorescence, and ymaximum is the highest measured fluorescence signal in the untreated wells. Drug concentrations (in μM) were transformed to the log(10)of the values. Means of each independent experiment were plotted as individual values, and the SD of the mean from the means shown as error bars. […] In case of transgenic cell lines, the built-in comparison Akaike’s information criteria (AICc) method was applied to the Log IC50s of the different cell lines. The test calculates a percentage probability of the simpler model “Log IC50 is the same for datasets” being correct. The test for homoscedasticity was performed to confirm if no weighting of values was appropriate.

P. falciparum 3D7 [2] = test: Method II growth-inhibition assay (PicoGreen, 3 days), 3D7; type: cell-based; details: Plasmodium falciparum, 3D7, method II
From the text: (§2) Fidock (Columbia University).

P. falciparum NF54 [3] = test: Method II growth-inhibition assay (PicoGreen, 3 days), NF54; type: cell-based; details: Plasmodium falciparum; chloroquine-sensitive NF54, method II
From the text: as §2

P. falciparum 3D7 [4] = test: Method III growth inhibition assay (HRP2-ELISA, 3 days), 3D7; type: cell-based, Plasmodium falciparum
P. falciparum Dd2 = test: Method III growth inhibition assay (HRP2-ELISA, 3 days), Dd2; type: cell-based, Plasmodium falciparum; details: Plasmodium falciparum, DD2, chloroquine-resistant Dd2, method III
Hep G2 cells = test: Hep G2 viability assay (counter screen); type: cell-based, human; details: for IC50: HepG2, 48 h, cytotoxicity, 48 h
Description: HepG2 cells (2 × 10^5 cells per well) were seeded in 24-well, flat-bottomed plates. Culturing of cells, incubations, and OD measurements were performed as described previously with small modifications.[58] 24 h after seeding the cells, the incubation was started by the addition of compounds in a final DMSO concentration of 1%. The metabolic activity of the living cell mass was determined after 48 h. At least three independent measurements were performed for each compound. The IC50 values were determined during logarithmic growth using GraphPad Prism software. All experiments were performed at least in triplicate, and data reported represent the mean ± SD.

[5] = Metabolic stability in human liver S9 fraction; type: in vitro ADME; details: human, pooled liver S9 fraction, 1 μM compound
Description: For the evaluation of combined phase I and phase II metabolic stability, the compound (1 μM) was incubated with 1 mg/mL pooled liver S9 fraction (XenoTech), 2 mM NADPH, 1 mM UDPGA, 10 mM MgCl2, 5 mM GSH, and 0.1 mM PAPS at 37 °C for 0, 5, 15, 30, and 60 min. The metabolic stabilities of testosterone (1 μM), verapamil (1 μM), and propranolol (1 μM) were determined in parallel to confirm the enzymatic activity of the S9 fraction. The incubation was stopped by precipitation of S9 enzymes with two volumes of cold acetonitrile containing internal standard (150 nM diphenhydramine). Samples were stored on ice for 10 min, and precipitated protein was removed by centrifugation (15 min, 4 °C, 4000 rpm). The concentration of the remaining test compound at the different time points was analyzed by LC-MS/MS (TSQ Quantum Access MAX, Thermo Fisher, Dreieich, Germany) and used to determine half-life (t1/2).

P. falciparum 3D7-DXPS+ = test: Growth inhibition of PfDXPS overexpressing parasites (3D7-DXPS+); type: cell-based; details: Plasmodium falciparum, 3D7, read-out: PfDXPS IC50
From the text: (§3) The open reading frame (ORF) encoding 1-deoxy-D-xylulose-5-phosphate synthase (PfDXPS; PF3D7_1337200) was amplified from genomic DNA isolated from unsynchronized P. falciparum 3D7 cultures using the Platinum PCR SuperMix High Fidelity (Invitrogen). Forward and reverse primers contained restriction sites for KpnI and AvrII in sense and antisense orientation, respectively (oligonucleotides pfDXPS-Kpn1-S: […]; pfDXPSmyc-Avr2-AS: […] ). PCR products and the transfection vector pARL1a-hDHFR PfARG-GFP were digested with KpnI and AvrII, purified (Gel extraction Kit and PCR purification kit; Qiagen), and cloned into the transfection vector yielding the construct for overexpression pARL-DXS-strep. XL 10-Gold E. coli ultracompetent cells (Agilent Technologies) were transformed with the generated construct to amplify the plasmid and colonies checked using restriction analysis and sequencing of the plasmid. Bacterial clones carrying the overexpression construct and the empty pARL1a vector (MOCK plasmid) were amplified in overnight cultures, isolated (Plasmid Maxi Kit; QIAGEN), and subsequently used to transfect P. falciparum 3D7 ring-stage parasites, as already described.[59] Briefly, 120 μg of plasmid DNA was centrifuged and air-dried, and the pellet was resuspended in TE buffer and cytomix reagent and mixed with the P. falciparum culture. Parasites were transfected using electroporation and selected with WR 99210. The generation and characterization of the PfTPK overexpression cell line has been reported before.[60]
(§4) P. falciparum cultures were treated as described in method I. For target specification toward PfTPK and PfDXPS, compounds were tested in comparison against overexpressing cell lines and the respective MOCK line containing only the transfected vector backbone. Parasite viability/proliferation was determined.

[6] = test system: P. falciparum 3D7 MOCK cell line; test: Growth inhibition of MOCK cell line (vector backbone only); type: cell-based; details: Plasmodium falciparum, 95% CI in brackets
From the text: as §3, §4

P. falciparum 3D7-TPK+ = test: Growth inhibition of PfTPK overexpressing parasites (3D7-TPK+); type: cell-based; details: Plasmodium falciparum, 3D7, read-out: PfTPK IC50
Description: as §4, with “determined. Analysis of the IC50 values and interpretation of the curves was performed, as described in Section 4.1.2.44.” for “determined.”
as §1

M. tuberculosis DXPS = biological target: M. tuberculosis DXPS; parameters: method as in PMID 36320685; details: Morrison inhibition constant, slow-, tight-binding; read-out: Ki* MtDXPS; cited from earlier work
[7] = test system: Mycobacterium tuberculosis H37Rv strain; parameters: method as in PMID 36320685; details: cited from earlier work
[8] = test system: blood-stage P. falciparum 3D7; details: Plasmodium falciparum
[9] = Kinetic solubility determination; type: physicochemical; details: PBS buffer and 2% DMSO; for solubility at 5 min: PBS with 2% DMSO, aqueous buffer, kinetic from dmso stock, read-out: Max. solubility
Description: The desired compounds were sequentially diluted in DMSO in a 96-well plate. 3 μL of each well was transferred into another 96-well plate and mixed with 147 μL of PBS. Plates were shaken for 5 min at 600 rpm at room temperature (r.t.), and the absorbance at 620 nm was measured. Absorbance values were normalized by blank subtraction and plotted using GraphPad Prism 8.4.2 (GraphPad Software, San Diego, California, USA). Solubility (S) was determined based on the First X value of AUC function using a threshold of 0.005.

P. falciparum 3D7 [10] = test: IDP rescue assay, P. falciparum 3D7; type: cell-based; details: Plasmodium falciparum
Description: (§5) Fidock (Columbia University). […] P. falciparum cultures were treated as described in method II. For IDP (Isoprenoids.com) rescue experiments, 125 μM IDP was added to the appropriate wells for the duration of the experiment. The well-described DXR inhibitor FSM was used as a positive control. IC50 values were calculated by nonlinear regression analysis using GraphPad Prism software. All experiments were performed at least in triplicate, and data reported represent the mean ± SD.

P. falciparum NF54 [11] = test: IDP rescue assay, P. falciparum NF54; type: cell-based; details: Plasmodium falciparum
Description: as §5

[12] = 3D7, method III (HRP2 assay), drc package of R, read-out: IC50 P. falciparum 3D7 (method III)
[13] = Plasmodium falciparum, 3D7, 3D7, method III (HRP2 assay), drc package of R, read-out: IC50 P. falciparum 3D7 (method III)

OCc1cn(Cc2ccc(Cl)c(Cl)c2)c2ccccc12 [compound 3]
IC50 (P. falciparum 3D7 [1]; 3D7, read-out: IC50 3D7-I): 25 ± 3 µM
IC50 (P. falciparum 3D7 [1]; 3D7, read-out: IC50 A [μM]): 21.4 µM
IC50 (P. falciparum 3D7 [2]; 95% CI in brackets, read-out: IC50 B): 17.1 µM
IC50 (P. falciparum 3D7 [2]; read-out: IC50 3D7-II): 17 ± 2 µM
IC50 (P. falciparum NF54 [3]): 15 ± 2 µM
IC50 (P. falciparum 3D7 [4]; [12]): 24000 ± 6000 nM
IC50 (P. falciparum 3D7 [4]; [13]): 23600 ± 6400 nM
IC50 (P. falciparum 3D7 [4]; Plasmodium falciparum, 3D7, 3D7, method III, nonlinear regression as in Figure 2, 95% CI in brackets, read-out: IC50 C): 7900 nM
IC50 (P. falciparum Dd2): 13 ± 9 µM
IC50 (Hep G2 cells; Homo sapiens): 0.8 ± 0.2 µM
half-life at 1 μM [5]: 10 ± 0.4 min
IC50 (P. falciparum 3D7-DXPS+): 17.9 µM
IC50 ([6]; 3D7, read-out: MOCK IC50, MOCK compared with 3D7-DXPS+): 17.9 µM
IC50 ([6]; 3D7, read-out: MOCK IC50, MOCK compared with 3D7-TPK+, single measurement): 23.8 µM
IC50 (P. falciparum 3D7-TPK+): 21.1 µM
Ki (M. tuberculosis DXPS): 1.29 ± 0.2 µM
MIC [7]: 10 µM (≈ 3.06 µg/mL)
IC50 [8]: 8 to 21 µM

Oc1ccc(C(O)Cc2ccc(Cl)cc2)c(O)c1 (centres unmarked) [compound 13, 4-(2-(4-Chlorophenyl)-1-hydroxyethyl)benzene-1,3-diol]
IC50 (P. falciparum 3D7 [4]; [12]): 10000 ± 2000 nM
IC50 (P. falciparum 3D7 [4]; [13]): 9900 ± 1700 nM
IC50 (P. falciparum Dd2): 28 ± 13 µM
IC50 (Hep G2 cells; Homo sapiens): > 100 µM
cytotoxicity towards Hep G2 cells (Hep G2 cells; at 100 μM): no cytotoxicity
half-life at 1 μM [5]: 98 ± 10 min

COc1ccc(/C(Cc2ccc(N)cc2)=N/O)c(OC)c1 [compound 6, (E)-2-(4-Aminophenyl)-1-(2,4-dimethoxyphenyl)ethan-1-one oxime]
IC50 (P. falciparum 3D7 [4]; [13]): > 111000 nM
IC50 (P. falciparum Dd2): > 111 µM
solubility at 5 min [9]: 119 ± 27.4 µM (≈ 34.2 µg/mL)

Nc1ccc(C/C(=N\O)c2ccc(O)cc2O)cc1 [compound 5, (E)-2-(4-Aminophenyl)-1-(2,4-dihydroxyphenyl)ethan-1-one oxime]
IC50 (P. falciparum 3D7 [4]; [13]): > 111000 nM
IC50 (P. falciparum Dd2): > 111 µM
Max. solubility [9]: 193.6 ± 95.7 µM
solubility at 5 min [9]: ~200 µM (≈ 51.7 µg/mL)

OCc1cn(Cc2ccc(Cl)c(Cl)c2)c2cccc(F)c12 [compound 33, (1-(3,4-Dichlorobenzyl)-4-fluoro-1H-indol-3-yl)methanol]
IC50 (P. falciparum 3D7 [2]; read-out: IC50 3D7-II): 3 µM
IC50 (P. falciparum NF54 [3]): 3 ± 1 µM
IC50 (P. falciparum 3D7 [4]; [12]): 2000 nM
IC50 (P. falciparum 3D7 [4]; [13]): 3000 nM
IC50 (P. falciparum 3D7 [4]; Plasmodium falciparum, 3D7, table of compounds as SMILES with biological activity, strain not given, values match 3D7 method III, read-out: IC50): 2400 nM
IC50 (P. falciparum Dd2): 3 µM
IC50 (Hep G2 cells; Homo sapiens): 0.79 ± 0.37 µM
IC50 (P. falciparum 3D7 [10]; 3D7, 72 h, + IDP (125 μM)): 3.1 µM
IC50 (P. falciparum 3D7 [10]; 3D7, without IDP): 2.7 ± 0.3 µM
IC50 (P. falciparum NF54 [11]; NF54, 72 h, + IDP (125 μM)): 2.2 µM
IC50 (P. falciparum NF54 [11]; NF54, without IDP): 2.4 ± 0.6 µM

CCN(CC)CCCC(C)Nc1ccnc2cc(Cl)ccc12 (centres unmarked) [Chloroquine, chloroquine diphosphate, reference compound]
IC50 (P. falciparum 3D7 [1]; 3D7, method I, nM, read-out: IC50 3D7-I): 0.0178 ± 0.0031 µM
IC50 (P. falciparum 3D7 [4]; Plasmodium falciparum, 3D7, 3D7, method III, nM, read-out: IC50 3D7-III): 2.8 ± 0.7 nM
IC50 (P. falciparum Dd2): 0.19 ± 0.03 µM

COc1ccc(CNCc2cn(Cc3ccc(Cl)c(Cl)c3)c3ccccc23)c(OC)c1 [compound 34, 1-(1-(3,4-Dichlorobenzyl)-1H-indol-3-yl)-N-(2,4-dimethoxybenzyl)methan-amine]
IC50 (P. falciparum Dd2): 21 ± 6 µM
inhibition at 10 µM (Hep G2 cells; Homo sapiens, HepG2, at 10 μM): 90%
